Columns and labels:
[1] = target: IDH1R132C (Homo sapiens (Human), UniProt O75874, R132C); assay: Inhibitory activity against IDH1R132C enzyme (NADPH detection, WST-8); type: biochemical; conditions: 10 nM, residual NADPH detected with WST-8, read-out: Test Example 1 IDH1 R132C IC50
Protocol: After transformation of Rosetta 2 (DE3) E. coli, the expression of the protein was induced with IPTG.
While NADPH-derived fluorescence was occasionally monitored, the reaction was terminated by the addition of 5 μL of 0.5 M EDTA before consumption of NADPH. 5 μL of WST-8 reagent (Dojindo Laboratories, #CK04) was further added and mixed therewith. 15 minutes later, the absorbance at 450 nm was measured using a plate reader (PerkinElmer, Inc., EnVision). The observed absorbance value reflects the amount of residual NADPH. From the absorbance data, the enzyme inhibitory activity of each compound at each concentration was calculated and analyzed using medical statistical analysis software GraphPad Prism to calculate an IC50 value.

[2] = tested on: HT-1080 cells expressing IDH1R132C; assay: 2-HG production inhibitory activity using HT1080 cell; type: cell-based, human; conditions: Homo sapiens, HT-1080; 2-HG production, HT1080 cells; read-out: Test Example 3 IC50
Protocol: Then, 100 μL of growth medium B was added to each well, further 25 μL of a solution of each compound diluted to a predetermined concentration with growth medium B was added to each well, and the cells were incubated at 37° C. for 2 days under 5% CO2. […] Then, 150 μL of ultrapure water was further added to each well, and the mixture was stirred by pipetting and stored at −20° C.
The preserved solutions were thawed at room temperature.

Sequence of IDH1R132C (O75874 whole entry R132C): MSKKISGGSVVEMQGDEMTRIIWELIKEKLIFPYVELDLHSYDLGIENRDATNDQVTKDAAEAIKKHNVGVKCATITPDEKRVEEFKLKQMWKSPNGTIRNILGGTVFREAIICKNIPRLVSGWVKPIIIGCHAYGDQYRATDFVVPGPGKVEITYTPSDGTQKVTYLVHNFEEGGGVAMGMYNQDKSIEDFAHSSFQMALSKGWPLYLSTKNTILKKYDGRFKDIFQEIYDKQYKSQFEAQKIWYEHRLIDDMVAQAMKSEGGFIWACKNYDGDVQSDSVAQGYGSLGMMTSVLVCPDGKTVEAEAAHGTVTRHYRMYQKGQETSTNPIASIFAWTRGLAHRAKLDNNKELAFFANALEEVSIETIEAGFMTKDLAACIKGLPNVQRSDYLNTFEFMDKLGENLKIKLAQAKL

IC50 [1] [nM] | IC50 [2] [nM] | SMILES
279 | 28 | C=CC(=O)N1CCC(c2noc(-c3c(Cl)cc(Cl)cc3Cl)c2C(=O)n2ccc3c(/C=C/C(=O)O)cccc32)CC1 [Example 132, (2E)-3-(1-{[3-(1-Acryloylpiperidin-4-yl)-5-(2,4,6-trichlorophenyl)-1,2-oxazol-4-yl]carbonyl}-1H-indol-4-yl)prop-2-enoic acid]
94 | 118 | COC1(c2onc(-c3c(Cl)cccc3Cl)c2C(=O)n2ccc3c(/C=C/C(=O)O)cccc32)COC1 [Example 76, (2E)-3-(1-{[3-(2,6-Dichlorophenyl)-5-(3-methoxyoxetan-3-yl)-1,2-oxazol-4-yl]carbonyl}-1H-indol-4-yl)prop-2-enoic acid]
79 | 33 | CNC1(c2onc(-c3c(Cl)cc(Cl)cc3Cl)c2C(=O)n2cc3c4c(cccc42)/C(=C/C(=O)O)CC3)CC1 [Example 86, (2E)-[1-({5-[1-(Methylamino)cyclopropyl]-3-(2,4,6-trichlorophenyl)-1,2-oxazol-4-yl}carbonyl)-3,4-dihydrobenzo[cd]indol-5(1H)-ylidene]ethanoic acid]
152 | 787 | CC(C)(O)c1onc(-c2c(Cl)cccc2Cl)c1C(=O)n1ccc2c(/C=C/C(=O)O)cccc21 [Example 7, (2E)-3-(1-{[3-(2,6-Dichlorophenyl)-5-(2-hydroxypropan-2-yl)-1,2-oxazol-4-yl]carbonyl}-1H-indol-4-yl)prop-2-enoic acid]
335 | 99 | COCC1(c2onc(-c3c(Cl)cc(Cl)cc3Cl)c2C(=O)n2cc(C)c3c(/C=C/C(=O)O)cccc32)CCC1 [Example 80, (2E)-3-(1-{[5-[1-(Methoxymethyl)cyclobutyl]-3-(2,4,6-trichlorophenyl)-1,2-oxazol-4-yl]carbonyl}-3-methyl-1H-indol-4-yl)prop-2-enoic acid]
326 | 248 | Cc1cn(C(=O)c2c(-c3c(Cl)cccc3Cl)noc2C(C)C)c2cccc(/C=C/C(=O)O)c12 [Example 25, (2E)-3-(1-{[3-(2,6-Dichlorophenyl)-5-(propan-2-yl)-1,2-oxazol-4-yl]carbonyl}-3-methyl-1H-indol-4-yl)prop-2-enoic acid]
149 | 13 | C=CC(=O)N1CCC(O)(c2onc(-c3c(Cl)cc(Cl)cc3Cl)c2C(=O)n2cc(C)c3c(/C=C/C(=O)O)cccc32)CC1 [Example 123]
178 | 295 | COc1cc(Cl)cc(Cl)c1-c1noc(C(C)(C)F)c1C(=O)n1cc(C)c2c(/C=C/C(=O)O)cccc21 [Example 58, (2E)-3-(1-{[3-(2,4-Dichloro-6-methoxyphenyl)-5-(2-fluoropropan-2-yl)-1,2-oxazol-4-yl]carbonyl}-3-methyl-1H-indol-4-yl)prop-2-enoic acid]
88 | 288 | CN(C)c1onc(-c2c(Cl)cc(Cl)cc2Cl)c1C(=O)n1ccc2c(/C=C/C(=O)O)cccc21 [Example 138]
422 | 290 | C=CC(=O)N1CCCC(c2onc(-c3c(Cl)cc(Cl)cc3Cl)c2C(=O)n2ccc3c(/C=C/C(=O)O)cccc32)C1 (stereo not shown) [Example 96]
143 | 347 | CCN(CC)c1onc(-c2c(Cl)cccc2Cl)c1C(=O)n1ccc2c(/C=C/C(=O)O)cccc21 [Example 134, (2E)-3-(1-{[3-(2,6-Dichlorophenyl)-5-(diethylamino)-1,2-oxazol-4-yl]carbonyl}-1H-indol-4-yl)prop-2-enoic acid]
80 | 9 | CN(C)C1(c2onc(-c3c(Cl)cc(Cl)cc3Cl)c2C(=O)n2cc3c4c(cccc42)/C(=C/C(=O)O)CC3)CC1 [Example 92]
189 | 299 | C[C@@H]1CCC[C@H](C)N1c1onc(-c2c(Cl)cccc2Cl)c1C(=O)n1ccc2c(/C=C/C(=O)O)cccc21 [Example 137, (2E)-3-(1-{[3-(2,6-Dichlorophenyl)-5-(cis-2,6-dimethylpiperidin-1-yl)-1,2-oxazol-4-yl]carbonyl}-1H-indol-4-yl)prop-2-enoic acid]
80 | 15 | CNC(C)(C)c1onc(-c2c(Cl)cc(Cl)cc2Cl)c1C(=O)n1cc(C)c2c(/C=C/C(=O)O)cccc21 [Example 84, (2E)-3-[3-Methyl-1-({5-[2-(methylamino)propan-2-yl]-3-(2,4,6-trichlorophenyl)-1,2-oxazol-4-yl]carbonyl}-1H-indol-4-yl)prop-2-enoic acid]
201 | 242 | Cc1cn(C(=O)c2c(-c3ccc(Cl)c(F)c3Cl)noc2C(C)(C)F)c2cccc(/C=C/C(=O)O)c12 [Example 17]
176 | 413 | CC(C)(C)c1onc(-c2c(Cl)cc(Cl)cc2Cl)c1C(=O)N1CCc2c(/C=C/C(=O)O)cccc21 [Example 32, (2E)-3-(1-{[5-(tert-Butyl)-3-(2,4,6-trichlorophenyl)-1,2-oxazol-4-yl]carbonyl}-2,3-dihydro-1H-indol-4-yl)prop-2-enoic acid]
125 | 22 | C=CC(=O)N1CC2C(C1)C2c1onc(-c2c(Cl)cc(Cl)cc2Cl)c1C(=O)n1cc(C)c2c(/C=C/C(=O)O)cccc21 (stereo not shown) [Example 124]
130 | 166 | C=CC(=O)N1CCN(c2onc(-c3c(Cl)cccc3Cl)c2C(=O)n2ccc3c(/C=C/C(=O)O)cccc32)C(C)(C)C1 [Example 153, (2E)-3-(1-{[5-(4-Acryloyl-2,2-dimethylpiperazin-1-yl)-3-(2,6-dichlorophenyl)-1,2-oxazol-4-yl]carbonyl}-1H-indol-4-yl)prop-2-enoic acid]
94 | 428 | CC1(c2onc(-c3c(Cl)cccc3Cl)c2C(=O)n2ccc3c(/C=C/C(=O)O)cccc32)CCO1 (stereo not shown) [Example 77, (2E)-3-(1-{[3-(2,6-Dichlorophenyl)-5-(2-methyloxetan-2-yl)-1,2-oxazol-4-yl]carbonyl}-1H-indol-4-yl)prop-2-enoic acid]
168 | 389 | CC(C)(C)c1onc(-c2c(Cl)cccc2Br)c1C(=O)n1ccc2c(/C=C/C(=O)O)cccc21 [Example 39, (2E)-3-(1-{[3-(2-Bromo-6-chlorophenyl)-5-(tert-butyl)-1,2-oxazol-4-yl]carbonyl}-1H-indol-4-yl)prop-2-enoic acid]
182 | 10 | C=CC(=O)N1CCC(c2onc(-c3ccc(Cl)c(F)c3Cl)c2C(=O)n2cc(C)c3c(/C=C/C(=O)O)cccc32)CC1 [Example 129]
122 | 376 | O=C(O)/C=C/c1cccc2c1ccn2C(=O)c1c(-c2c(Cl)cccc2Cl)noc1N1CCCC1 [Example 135, (2E)-3-(1-{[3-(2,6-Dichlorophenyl)-5-(pyrrolidin-1-yl)-1,2-oxazol-4-yl]carbonyl}-1H-indol-4-yl)prop-2-enoic acid]
106 | 37 | COC1(c2onc(-c3c(F)cc(Cl)cc3Cl)c2C(=O)n2cc3c4c(cccc42)/C(=C/C(=O)O)CC3)CCC1 [Example 15, (2E)-[1-{[3-(2,4-Dichloro-6-fluorophenyl)-5-(1-methoxycyclobutyl)-1,2-oxazol-4-yl]carbonyl}-3,4-dihydrobenzo[cd]indol-5(1H)-ylidene]ethanoic acid]

From US10040791B2, “Isoxazole derivative as mutant isocitrate dehydrogenase 1 inhibitor” (Daiichi Sankyo Company, Limited, priority 2014, dated 2018)
